This is an account of results in US11814364B2, “Pyridine N-oxide derivatives useful as factor XIa inhibitors” (Janssen Pharmaceutica NV, priority 2021, dated 2023).

The IC50 is the concentration that inhibits the measured activity by half.

The assay has as its target human plasma kallikrein (Homo sapiens, UniProt P03952). In words: Kallikrein inhibition FLINT assay with quenched AMC peptide substrate Z-Gly-Pro-Arg-AMC (end point EP or kinetic KIN reads). The format is biochemical. As to conditions: kinetic reads at 5 min intervals over 30 min; read-out: Kallikrein (KIN) IC50. Put shortly:
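Enzyme and compound were preincubated 30 min before adding 50 μM AMC substrate in pH 7.5 Tris/NaCl/CaCl2/BSA/CHAPS buffer. AMC release was read at 30 min endpoint or every 5 min.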

human plasma kallikrein, sequence (P03952 391-638 limits assumed): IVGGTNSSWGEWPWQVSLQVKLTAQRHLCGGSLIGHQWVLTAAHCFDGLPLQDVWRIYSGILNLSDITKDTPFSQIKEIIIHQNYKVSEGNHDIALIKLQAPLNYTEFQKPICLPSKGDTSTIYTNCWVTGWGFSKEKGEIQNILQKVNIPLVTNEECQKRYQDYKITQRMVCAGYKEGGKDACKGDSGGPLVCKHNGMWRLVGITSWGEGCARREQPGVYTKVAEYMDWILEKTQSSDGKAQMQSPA
human plasma kallikrein, sequence (P03952 20-390 partner limits assumed): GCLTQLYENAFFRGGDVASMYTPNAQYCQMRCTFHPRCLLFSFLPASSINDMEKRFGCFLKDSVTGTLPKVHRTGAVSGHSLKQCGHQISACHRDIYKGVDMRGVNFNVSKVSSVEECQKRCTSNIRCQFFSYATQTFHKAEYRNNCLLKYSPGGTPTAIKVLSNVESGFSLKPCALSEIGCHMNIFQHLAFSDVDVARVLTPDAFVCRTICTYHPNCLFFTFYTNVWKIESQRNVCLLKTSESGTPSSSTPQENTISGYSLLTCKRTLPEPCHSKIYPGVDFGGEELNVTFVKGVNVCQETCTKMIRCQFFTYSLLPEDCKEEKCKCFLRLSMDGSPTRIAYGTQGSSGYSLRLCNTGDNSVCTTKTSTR

Turning to `O=C(O)c1ccc(-c2cnn(C(CN3CCCC3=O)c3ccc(-c4cc(Cl)ccc4-n4cnnn4)c[n+]3[O-])c2)cc1` (stereo not shown) [Example P163], the half-inhibitory concentration (IC50) was found to be 0.0269 µM.

Turning to `[O-][n+]1cc(-c2c(-n3cnnn3)ccc(Cl)c2F)ccc1[C@@H](Cc1ccc(C(F)(F)F)nc1)n1cc(-c2ccnn2C(F)F)cn1` [Example P777], the IC50 was determined as 0.0065 µM.

Take `O=C(O)c1ccc(-c2cnn(C(CC(=O)N3CCNCC3)c3ccc(-c4cc(Cl)ccc4-n4cnnn4)c[n+]3[O-])c2)cc1` (stereo not shown) [Example P90]: the IC50 was 0.08 µM.

Consider `[O-][n+]1cc(-c2c(-n3cc(Br)nn3)ccc(Cl)c2F)ccc1[C@@H](CCOC(F)F)n1cc(-c2ncnn2C(F)F)cn1` [Example P788], for which the IC50 is 0.0174 µM.

On to `CC(C)(C)c1cc(-c2cnn(C(Cn3cc(F)cn3)c3ccc(-c4c(-n5cnnn5)ccc(Cl)c4F)c[n+]3[O-])c2)ccn1` (stereo not shown) [Example P395], for which the IC50 was found to be 0.0255 µM.

For the compound `COC(=O)N1CCC(c2cnn(C(CC3CC3)c3ccc(-c4c(-n5cnnn5)ccc(Cl)c4F)c[n+]3[O-])c2)CC1` (stereo not shown) [Example P167], the half-maximal inhibitory concentration (IC50) was determined as 0.826 µM.

In the case of `Cn1nnc(Cl)c1-c1cnn([C@H](CCOC(F)F)c2ccc(-c3c(-n4cnnn4)ccc(Cl)c3F)c[n+]2[O-])c1` [Example P726], the IC50 is 0.0077 µM.

For `COC(=O)Nc1ccc(-c2cnn(C(CC3CCC3)c3ccc(-c4c(-n5cnnn5)ccc(Cl)c4F)c[n+]3[O-])c2)cc1` (stereo not shown) [Example P109], the IC50 came to 0.0457 µM.

As to `CCC(c1cc(OC)c(-c2cc(Cl)ccc2-n2cc(C(F)(F)F)nn2)c[n+]1[O-])n1cc(-c2ccc(C(N)=O)c(F)c2)cn1` (single isomer, unassigned) [Example P878], the IC50 turned out to be 0.0027 µM.

Regarding `COC(=O)Nc1ccc(-c2cnn(C(Cn3cccn3)c3ccc(-c4c(-n5cnnn5)ccc(Cl)c4F)c[n+]3[O-])c2)cc1` (stereo not shown) [Example P214], the half-maximal inhibitory concentration (IC50) is 0.0063 µM.

As to `[O-][n+]1cc(-c2c(-n3cnnn3)ccc(Cl)c2F)ccc1C(Cn1ccc(C(F)(F)F)n1)n1cc(-c2ccnc(F)c2)cn1` (stereo not shown) [Example P357], the half-inhibitory concentration (IC50) came out at 0.0237 µM.

As to `Nc1ncc(-c2cnn(C(CC3CC3)c3ccc(-c4c(-n5cnnn5)ccc(Cl)c4F)c[n+]3[O-])c2)cc1F` (single isomer, unassigned) [Example P194], the 50% inhibitory concentration (IC50) came to 0.228 µM.

Take `Cn1cc(C[C@H](c2ccc(-c3c(-n4cc(Cl)nn4)ccc(Cl)c3F)c[n+]2[O-])n2cc(-c3ccnc(C(F)(F)F)c3)cn2)nn1` [Example P739]: the 50% inhibitory concentration (IC50) was 0.0228 µM.

In the case of `Cc1nc(N)ccc1-c1cnn(C(CCOC(F)F)c2ccc(-c3c(-n4cnnn4)ccc(Cl)c3F)c[n+]2[O-])c1` (single isomer, unassigned) [Example P343], the IC50 worked out at 0.767 µM.

For the compound `CN(CC(c1ccc(-c2c(-n3cnnn3)ccc(Cl)c2F)c[n+]1[O-])n1cc(-c2ccnc(C(F)(F)F)c2)cn1)C(=O)C1CC1` (single isomer, unassigned) [Example P425], the IC50 came to 0.572 µM.

For the compound `NC(=O)c1ccc(-c2cnn(C(Cc3ccn(C(F)F)n3)c3ccc(-c4c(C(F)F)ccc(Cl)c4F)c[n+]3[O-])c2)cc1F` (single isomer, unassigned) [Example Q67], the half-inhibitory concentration (IC50) is 0.0029 µM.

Take `CC(C)n1ccc(C[C@H](c2ccc(-c3c(-n4cnnn4)ccc(Cl)c3F)c[n+]2[O-])n2cc(-c3ccnc(C(F)(F)F)c3)cn2)n1` [Example P652]: the half-inhibitory concentration (IC50) amounted to 0.0022 µM.

Turning to `[O-][n+]1cc(-c2c(-n3cnnn3)ccc(Cl)c2F)ccc1C(CCOC(F)(F)F)n1cc(-c2ccncn2)cn1` (stereo not shown) [Example P366], the IC50 turned out to be 0.151 µM.

For `CCC(c1cc(OC)c(-c2cc(Cl)ccc2-n2cc(C(F)(F)F)nn2)c[n+]1[O-])n1cc(-c2ncnn2C)cn1` (single isomer, unassigned) [Example P922], the concentration for half-maximal inhibition (IC50) turned out to be 0.0549 µM.

For the compound `[O-][n+]1cc(-c2c(-n3cc(Cl)nn3)ccc(Cl)c2F)ccc1[C@@H](CCOC(F)F)n1cc(-c2cnn(C(F)F)n2)cn1` [Example P666], the IC50 stood at 0.212 µM.

Take `CCOc1cc(C(CC2CC2)n2cc(-c3ccncc3)cn2)[n+]([O-])cc1-c1c(-n2cnnn2)ccc(Cl)c1F` (stereo not shown) [Example P251]: the concentration for half-maximal inhibition (IC50) is 0.0025 µM.

`Cn1ccc(C[C@H](c2ccc(-c3cc(Cl)ccc3C#N)c[n+]2[O-])n2cc(-c3ccc(C(=O)O)cc3)cn2)n1` [Example Q47]: the IC50 turned out to be 0.0576 µM.

Turning to `[O-][n+]1ccc(-c2cnn(C(Cn3cccn3)c3ccc(-c4c(-n5cnnn5)ccc(Cl)c4F)c[n+]3[O-])c2)cc1` (stereo not shown) [Example P348], the IC50 turned out to be 0.0272 µM.

`[O-][n+]1cc(-c2c(-n3cnnn3)ccc(Cl)c2F)ccc1C(CC1CC1)n1cc(-c2ccncc2)cn1` (stereo not shown) [Example P187]: the IC50 was 0.124 µM.

Take `Cn1ncnc1-c1cnn([C@H](CCOC(F)F)c2ccc(-c3cc(Cl)ccc3-n3cc(C(F)(F)F)nn3)c[n+]2[O-])c1` [Example P805]: the concentration for half-maximal inhibition (IC50) was found to be 0.256 µM.

With `CN(C)C(=O)c1ccn(CC(c2ccc(-c3c(-n4cnnn4)ccc(Cl)c3F)c[n+]2[O-])n2cc(-c3ccnc(C(F)(F)F)c3)cn2)n1` (single isomer, unassigned) [Example P451], the concentration for half-maximal inhibition (IC50) turned out to be 0.0178 µM.

For the compound `NC(=O)c1ccc(-c2cnn(C(Cc3ccn(C(F)F)n3)c3ccc(-c4c(-n5cc(C(F)(F)F)nn5)ccc(Cl)c4F)c[n+]3[O-])c2)cc1` (single isomer, unassigned) [Example P908], the half-inhibitory concentration (IC50) worked out at 0.0003 µM.

Turning to `NC(=O)c1ccc(-c2cnn(C(Cc3ncon3)c3ccc(-c4c(-n5cc(C(F)(F)F)nn5)ccc(Cl)c4F)c[n+]3[O-])c2)cc1F` (stereo not shown) [Example P915], the IC50 came to 0.0202 µM.

Take `O=C(O)c1ccc(-c2cnn(C(Cc3ccccc3)c3ccc(-c4c(OCC(F)(F)F)ccc(Cl)c4F)c[n+]3[O-])c2)cc1` (stereo not shown) [Example Q4]: the half-maximal inhibitory concentration (IC50) was found to be 0.265 µM.

For the compound `CC(C)c1cc(-c2cnn(C(Cn3cc(F)cn3)c3ccc(-c4c(-n5cnnn5)ccc(Cl)c4F)c[n+]3[O-])c2)cc[n+]1[O-]` (single isomer, unassigned) [Example P413], the IC50 came to 0.0193 µM.

As to `[O-][n+]1cc(-c2c(-n3cnnn3)ccc(Cl)c2F)ccc1C(Cn1cc(F)cn1)n1cc(-c2ccnc(C(F)(F)F)c2)cn1` (stereo not shown) [Example P333], the 50% inhibitory concentration (IC50) turned out to be 0.0172 µM.

As for `NC(=O)Cc1ccnn1CC(c1ccc(-c2c(-n3cnnn3)ccc(Cl)c2F)c[n+]1[O-])n1cc(-c2ccnc(C(F)(F)F)c2)cn1` (stereo not shown) [Example P470], the half-inhibitory concentration (IC50) worked out at 0.0995 µM.

Turning to `Cn1ncc(C[C@@H](c2ccc(-c3c(-n4cc(Cl)nn4)ccc(Cl)c3F)c[n+]2[O-])n2cc(-c3ccnc(C(F)(F)F)c3)cn2)n1` [Example P715], the IC50 was 0.83 µM.

As to `O=C(O)c1ccc(-c2cnn([C@H](CCOC(F)F)c3ccc(-c4c(C(F)F)ccc(Cl)c4F)c[n+]3[O-])c2)cc1` [Example Q35], the IC50 was determined as 0.004 µM.

For `Cn1ncnc1-c1cnn(C(CCOC(F)F)c2ccc(-c3c(-n4cc(OC(F)F)nn4)ccc(Cl)c3F)c[n+]2[O-])c1` (stereo not shown) [Example P801], the half-maximal inhibitory concentration (IC50) was found to be 0.0841 µM.

On to `COC(=O)Nc1ccc(-c2cnn(C(CCOC(F)F)c3ccc(-c4c(-n5cnnn5)ccc(Cl)c4F)c[n+]3[O-])c2)cc1` (stereo not shown) [Example P226], for which the IC50 worked out at 0.003 µM.

As to `[O-][n+]1cc(-c2c(-n3cc(Cl)nn3)ccc(Cl)c2F)ccc1[C@@H](CCOC(F)F)n1cc(-c2cn(C(F)F)nn2)cn1` [Example P679], the concentration for half-maximal inhibition (IC50) turned out to be 0.353 µM.

Take `Cn1nnc(F)c1-c1cnn(C(CCOC(F)F)c2ccc(-c3c(-n4cnnn4)ccc(Cl)c3F)c[n+]2[O-])c1` (stereo not shown) [Example P749]: the IC50 amounted to 0.0198 µM.

On to `CCCC(c1ccc(-c2c(-n3cnnn3)ccc(Cl)c2F)c[n+]1[O-])n1cc(-c2ccc(NC(=O)OC)cc2)cn1` (single isomer, unassigned) [Example P158], for which the IC50 turned out to be 0.0451 µM.

In the case of `CN(CC(c1ccc(-c2c(-n3cnnn3)ccc(Cl)c2F)c[n+]1[O-])n1cc(-c2ccnc(F)c2)cn1)C(=O)c1ccccc1` (stereo not shown) [Example P424], the IC50 amounted to 0.0286 µM.

As to `COCC[C@H](c1ccc(-c2c(-n3cnnn3)ccc(Cl)c2F)c[n+]1[O-])n1cc(-c2cnc(C(F)F)s2)cn1` [Example P531], the IC50 stood at 0.174 µM.

With `CCOC(=O)C1CC1CC(c1ccc(-c2cc(Cl)ccc2-n2cnnn2)c[n+]1[O-])n1cc(-c2ccc(C(=O)O)cc2)cn1` (stereo not shown) [Example P67], the IC50 was 0.362 µM.

Take `[O-][n+]1cc(-c2c(-n3cnnn3)ccc(Cl)c2F)ccc1C(CC1CC1)n1cc(-c2cnnn2C2CC2)cn1` (stereo not shown) [Example P524]: the IC50 came out at 0.428 µM.

Regarding `[O-][n+]1ccc(-c2cnn(C(Cc3ccc(F)cc3)c3ccc(-c4c(C(F)F)ccc(Cl)c4F)c[n+]3[O-])c2)cc1` (single isomer, unassigned) [Example Q18], the IC50 worked out at 0.0051 µM.

With `[O-][n+]1cc(-c2c(-n3cnnn3)ccc(Cl)c2F)ccc1[C@@H](CCOC(F)F)n1cc(-c2cnnn2C(F)F)cn1` [Example P676], the IC50 was determined as 0.0118 µM.

Turning to `[O-][n+]1cc(-c2c(-n3cnnn3)ccc(Cl)c2F)ccc1[C@@H](Cn1ccc(OC(F)F)n1)n1cc(-c2ccnc(C(F)(F)F)c2)cn1` [Example P533], the IC50 worked out at 0.0077 µM.

For `Cn1nnc(-c2cnn([C@H](CCOC(F)F)c3ccc(-c4c(-n5cc(Cl)nn5)ccc(Cl)c4F)c[n+]3[O-])c2)c1F` [Example P705], the IC50 was 0.21 µM.

With `CCC(c1ccc(-c2c(-n3cnnn3)ccc(Cl)c2F)c[n+]1[O-])n1cc(-c2ccc(NC(=O)OC)cc2)cn1` (single isomer, unassigned) [Example P155], the IC50 came to 0.0861 µM.

For `COCC[C@H](c1ccc(-c2c(-n3cnnn3)ccc(Cl)c2F)c[n+]1[O-])n1cc(-c2cc(C(F)(F)F)nn2C)cn1` [Example P619], the 50% inhibitory concentration (IC50) is 0.0893 µM.

As for `COc1ccc(C2CC2CC(c2ccc(-c3cc(Cl)ccc3-n3cnnn3)c[n+]2[O-])n2cc(-c3ccc(C(=O)O)cc3)cn2)cc1` (stereo not shown) [Example P239], the IC50 was 0.18 µM.

On to `[O-][n+]1cc(-c2cc(Cl)ccc2-n2cnnn2)ccc1C(Cn1cccn1)n1cc(-c2ccnc(C3CC3)c2)cn1` (stereo not shown) [Example P286], for which the half-maximal inhibitory concentration (IC50) amounted to 0.023 µM.

`O=C(Nc1ccnc(F)c1-c1cnn(C(Cc2ccc(F)cc2)c2ccc(-c3c(-c4cnco4)ccc(Cl)c3F)c[n+]2[O-])c1)C1CC1` (stereo not shown) [Example P148]: the IC50 was 0.35 µM.
